Structures can show the parent of a compound that is named as a salt. Calls of active or inactive are those of the source.
Assays:
[1] = biological target: T1, Uncharacterized protein FLJ45252 (Homo sapiens, UniProt Q6ZSR9); details: read-out: Kd apparent; k-562, colo 205, sk-n-be(2) and mv-4-11
T1 sequence (Q6ZSR9 whole entry): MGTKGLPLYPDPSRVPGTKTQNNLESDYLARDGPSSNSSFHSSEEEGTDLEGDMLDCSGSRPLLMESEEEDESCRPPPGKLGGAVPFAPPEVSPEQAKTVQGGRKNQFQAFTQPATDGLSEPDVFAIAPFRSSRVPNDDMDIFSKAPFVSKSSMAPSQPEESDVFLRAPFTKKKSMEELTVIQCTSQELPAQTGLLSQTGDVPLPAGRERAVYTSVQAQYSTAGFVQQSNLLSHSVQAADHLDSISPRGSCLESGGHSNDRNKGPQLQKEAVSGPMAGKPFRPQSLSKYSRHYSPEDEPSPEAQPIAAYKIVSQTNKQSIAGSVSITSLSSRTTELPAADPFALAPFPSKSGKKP

[2] = biological target: T2, TGF-beta receptor type-1 (Homo sapiens, UniProt P36897)
T2 sequence (P36897 whole entry): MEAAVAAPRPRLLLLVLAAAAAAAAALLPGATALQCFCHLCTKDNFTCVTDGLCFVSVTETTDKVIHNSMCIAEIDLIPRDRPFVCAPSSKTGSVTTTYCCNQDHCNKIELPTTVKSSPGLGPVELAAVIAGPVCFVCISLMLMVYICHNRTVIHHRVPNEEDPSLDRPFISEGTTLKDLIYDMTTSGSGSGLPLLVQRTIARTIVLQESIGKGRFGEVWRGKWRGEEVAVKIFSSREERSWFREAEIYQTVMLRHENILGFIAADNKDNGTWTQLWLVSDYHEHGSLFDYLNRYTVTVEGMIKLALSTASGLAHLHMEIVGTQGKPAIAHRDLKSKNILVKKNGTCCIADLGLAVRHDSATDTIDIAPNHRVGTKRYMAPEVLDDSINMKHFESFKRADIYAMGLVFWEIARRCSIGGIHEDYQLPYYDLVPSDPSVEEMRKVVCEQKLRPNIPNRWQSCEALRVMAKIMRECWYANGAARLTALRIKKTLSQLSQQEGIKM

[3] = biological target: T3, Probable ATP-dependent RNA helicase DDX6 (Homo sapiens, UniProt P26196)
T3 sequence (P26196 whole entry): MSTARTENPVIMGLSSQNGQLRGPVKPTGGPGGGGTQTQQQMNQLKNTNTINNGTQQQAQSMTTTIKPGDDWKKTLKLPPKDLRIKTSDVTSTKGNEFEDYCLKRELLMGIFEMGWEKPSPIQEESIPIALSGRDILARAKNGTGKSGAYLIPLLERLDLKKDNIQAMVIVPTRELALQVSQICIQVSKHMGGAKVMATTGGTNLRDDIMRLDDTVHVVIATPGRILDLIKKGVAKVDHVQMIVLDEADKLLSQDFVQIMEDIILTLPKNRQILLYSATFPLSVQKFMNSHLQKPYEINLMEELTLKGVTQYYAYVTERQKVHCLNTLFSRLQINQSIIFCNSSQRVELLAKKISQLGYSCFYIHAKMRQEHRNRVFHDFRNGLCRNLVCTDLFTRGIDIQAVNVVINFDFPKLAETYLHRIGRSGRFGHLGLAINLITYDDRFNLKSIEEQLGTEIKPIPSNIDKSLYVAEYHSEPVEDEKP

[4] = biological target: T4, DNA replication licensing factor MCM4 (Homo sapiens, UniProt P33991)
T4 sequence (P33991 whole entry): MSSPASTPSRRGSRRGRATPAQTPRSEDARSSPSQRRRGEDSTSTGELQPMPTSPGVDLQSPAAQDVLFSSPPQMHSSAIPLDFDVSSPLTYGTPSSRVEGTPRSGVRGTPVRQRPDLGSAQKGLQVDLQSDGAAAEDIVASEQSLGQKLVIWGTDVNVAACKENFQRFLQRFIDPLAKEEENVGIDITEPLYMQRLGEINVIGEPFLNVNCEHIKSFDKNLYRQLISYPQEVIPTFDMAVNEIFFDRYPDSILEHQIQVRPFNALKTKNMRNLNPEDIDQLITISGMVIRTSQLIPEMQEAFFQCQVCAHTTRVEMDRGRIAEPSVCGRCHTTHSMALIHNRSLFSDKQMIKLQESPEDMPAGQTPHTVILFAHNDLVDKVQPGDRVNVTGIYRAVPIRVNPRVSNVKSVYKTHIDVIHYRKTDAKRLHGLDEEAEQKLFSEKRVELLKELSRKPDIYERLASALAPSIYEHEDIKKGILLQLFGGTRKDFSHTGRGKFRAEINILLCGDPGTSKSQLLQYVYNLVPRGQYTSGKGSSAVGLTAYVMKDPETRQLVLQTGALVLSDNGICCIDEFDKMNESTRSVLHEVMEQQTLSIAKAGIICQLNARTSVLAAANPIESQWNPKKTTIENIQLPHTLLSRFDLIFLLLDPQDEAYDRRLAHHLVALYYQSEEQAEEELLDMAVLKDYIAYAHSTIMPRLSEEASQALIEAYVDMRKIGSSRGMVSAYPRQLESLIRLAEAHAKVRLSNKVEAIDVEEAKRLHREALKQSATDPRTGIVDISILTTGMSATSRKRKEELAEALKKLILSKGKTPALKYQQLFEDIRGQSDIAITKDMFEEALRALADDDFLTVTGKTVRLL

[5] = biological target: T5, Delta(24)-sterol reductase (Homo sapiens, UniProt Q15392)
T5 sequence (Q15392 whole entry): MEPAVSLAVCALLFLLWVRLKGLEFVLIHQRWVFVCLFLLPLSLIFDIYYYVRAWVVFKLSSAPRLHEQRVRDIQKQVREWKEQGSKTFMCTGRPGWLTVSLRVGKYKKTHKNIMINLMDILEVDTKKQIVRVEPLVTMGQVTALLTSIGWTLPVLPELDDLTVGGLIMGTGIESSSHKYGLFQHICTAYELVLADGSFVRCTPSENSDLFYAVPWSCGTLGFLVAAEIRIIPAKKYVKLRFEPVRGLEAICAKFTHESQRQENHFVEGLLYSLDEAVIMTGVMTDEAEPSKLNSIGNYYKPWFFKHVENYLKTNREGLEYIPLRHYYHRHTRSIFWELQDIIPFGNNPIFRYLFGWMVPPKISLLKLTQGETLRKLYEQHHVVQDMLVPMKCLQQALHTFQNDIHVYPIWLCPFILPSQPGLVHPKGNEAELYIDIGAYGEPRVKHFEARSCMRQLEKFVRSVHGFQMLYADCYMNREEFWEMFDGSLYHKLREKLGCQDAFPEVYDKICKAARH

[6] = biological target: Tyrosine-protein kinase JAK1 (Homo sapiens, UniProt P23458)
Sequence of Tyrosine-protein kinase JAK1 (P23458 whole entry): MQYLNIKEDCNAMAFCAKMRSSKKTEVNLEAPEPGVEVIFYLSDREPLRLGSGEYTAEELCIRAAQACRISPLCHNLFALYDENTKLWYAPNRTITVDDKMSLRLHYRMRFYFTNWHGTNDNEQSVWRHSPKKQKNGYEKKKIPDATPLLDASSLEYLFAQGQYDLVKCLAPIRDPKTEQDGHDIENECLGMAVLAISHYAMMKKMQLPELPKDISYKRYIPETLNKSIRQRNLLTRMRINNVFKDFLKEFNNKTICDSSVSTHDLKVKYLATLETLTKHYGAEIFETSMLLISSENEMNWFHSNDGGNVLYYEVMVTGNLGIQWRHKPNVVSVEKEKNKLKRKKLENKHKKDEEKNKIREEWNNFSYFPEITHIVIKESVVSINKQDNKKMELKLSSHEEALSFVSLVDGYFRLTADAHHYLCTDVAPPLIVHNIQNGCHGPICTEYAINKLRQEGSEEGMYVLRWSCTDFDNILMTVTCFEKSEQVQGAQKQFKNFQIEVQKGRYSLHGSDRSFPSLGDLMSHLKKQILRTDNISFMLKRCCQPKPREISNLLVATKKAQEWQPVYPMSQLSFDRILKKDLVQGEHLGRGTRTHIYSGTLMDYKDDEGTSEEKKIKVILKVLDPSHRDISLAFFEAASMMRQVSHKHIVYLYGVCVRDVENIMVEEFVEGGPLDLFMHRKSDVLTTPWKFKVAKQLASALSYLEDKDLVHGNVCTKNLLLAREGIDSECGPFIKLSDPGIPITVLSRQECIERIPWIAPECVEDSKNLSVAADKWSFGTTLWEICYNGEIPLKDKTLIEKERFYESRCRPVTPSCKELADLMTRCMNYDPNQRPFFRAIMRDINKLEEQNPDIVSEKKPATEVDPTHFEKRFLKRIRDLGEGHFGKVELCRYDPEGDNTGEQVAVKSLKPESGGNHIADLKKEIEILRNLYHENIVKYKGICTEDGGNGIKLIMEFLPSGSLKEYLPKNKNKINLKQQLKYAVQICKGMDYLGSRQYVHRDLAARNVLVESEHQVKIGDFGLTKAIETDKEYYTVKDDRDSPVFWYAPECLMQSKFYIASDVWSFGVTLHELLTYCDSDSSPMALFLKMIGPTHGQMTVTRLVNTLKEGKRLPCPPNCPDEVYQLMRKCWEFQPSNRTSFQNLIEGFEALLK

[7] = biological target: Bone morphogenetic protein receptor type-1A (Homo sapiens, UniProt P36894)
Sequence of Bone morphogenetic protein receptor type-1A (P36894 whole entry): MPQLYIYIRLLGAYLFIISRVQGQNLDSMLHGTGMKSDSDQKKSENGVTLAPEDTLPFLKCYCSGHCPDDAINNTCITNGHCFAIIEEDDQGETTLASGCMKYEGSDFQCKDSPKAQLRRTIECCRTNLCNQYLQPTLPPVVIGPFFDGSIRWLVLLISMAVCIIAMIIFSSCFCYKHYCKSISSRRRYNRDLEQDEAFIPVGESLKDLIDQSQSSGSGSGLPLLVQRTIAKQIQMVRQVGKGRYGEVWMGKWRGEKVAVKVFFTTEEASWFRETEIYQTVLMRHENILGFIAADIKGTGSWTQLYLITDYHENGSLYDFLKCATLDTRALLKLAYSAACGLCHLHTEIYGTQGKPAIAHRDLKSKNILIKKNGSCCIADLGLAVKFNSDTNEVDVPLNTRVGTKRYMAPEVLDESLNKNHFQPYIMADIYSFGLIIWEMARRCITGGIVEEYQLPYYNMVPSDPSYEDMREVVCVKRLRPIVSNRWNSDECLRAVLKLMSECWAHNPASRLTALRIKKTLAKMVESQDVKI

[8] = biological target: Wee1-like protein kinase (Homo sapiens, UniProt P30291)
Sequence of Wee1-like protein kinase (P30291 whole entry): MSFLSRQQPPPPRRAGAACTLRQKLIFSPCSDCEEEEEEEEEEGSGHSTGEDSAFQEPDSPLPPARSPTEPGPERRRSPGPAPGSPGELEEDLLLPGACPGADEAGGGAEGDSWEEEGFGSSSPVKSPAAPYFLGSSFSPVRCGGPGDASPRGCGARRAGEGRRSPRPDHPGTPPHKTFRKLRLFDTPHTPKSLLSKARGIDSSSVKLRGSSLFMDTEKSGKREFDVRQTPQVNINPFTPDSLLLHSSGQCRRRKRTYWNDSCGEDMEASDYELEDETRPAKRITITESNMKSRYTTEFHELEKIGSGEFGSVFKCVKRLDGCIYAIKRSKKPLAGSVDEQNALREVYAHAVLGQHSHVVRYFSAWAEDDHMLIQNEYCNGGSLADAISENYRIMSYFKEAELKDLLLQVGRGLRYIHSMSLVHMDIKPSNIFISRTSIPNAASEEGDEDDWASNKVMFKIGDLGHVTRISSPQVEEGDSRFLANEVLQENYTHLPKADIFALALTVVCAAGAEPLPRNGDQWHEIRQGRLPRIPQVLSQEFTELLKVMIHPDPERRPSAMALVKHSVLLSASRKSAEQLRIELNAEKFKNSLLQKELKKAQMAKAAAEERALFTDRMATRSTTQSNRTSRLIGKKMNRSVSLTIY
Note: in the data inactive means no Kd found up to 30 µM.

Row | Compound | Kd [1] | Kd [2] | Kd [3] | Kd [4] | Kd [5] | Kd [6] | Kd [7] | Kd [8]
1 | Cn1cnc2c(F)c(Nc3ccc(Br)cc3F)c(C(=O)NOCCO)cc21 [BINIMETINIB] | > 30 µM (inactive) | > 30 µM (inactive) | > 30 µM (inactive) | > 30 µM (inactive) | > 30 µM (inactive) | > 30 µM (inactive) | > 30 µM (inactive) | > 30 µM (inactive)
2 | Cc1cc(Nc2ncc(Cl)c(Nc3ccccc3S(=O)(=O)C(C)C)n2)c(OC(C)C)cc1C1CCNCC1 [CERITINIB] | > 30 µM (inactive) | > 30 µM (inactive) | > 30 µM (inactive) | > 30 µM (inactive) | > 30 µM (inactive) | > 30 µM (inactive) | > 30 µM (inactive) | > 30 µM (inactive)
3 | COCC(=O)NC/C=C/c1ccc2ncnc(Nc3ccc(Oc4ccc(C)nc4)c(C)c3)c2c1 [CP-724714] | > 30 µM (inactive) | > 30 µM (inactive) | > 30 µM (inactive) | > 30 µM (inactive) | > 30 µM (inactive) | > 30 µM (inactive) | > 30 µM (inactive) | > 30 µM (inactive)
4 | CCS(=O)(=O)N1CCN(c2ccc(Nc3ncc(C(N)=O)c(NC4CC4)n3)cc2)CC1 [Cerdulatinib Hydrochloride] | 0.0007 µM (active) | > 30 µM (inactive) | > 30 µM (inactive) | > 30 µM (inactive) | > 30 µM (inactive) | 0.078 µM (active) | > 30 µM (inactive) | > 30 µM (inactive)
5 | CC(C)(C)c1nc(-c2cccc(NS(=O)(=O)c3c(F)cccc3F)c2F)c(-c2ccnc(N)n2)s1 [DABRAFENIB] | > 30 µM (inactive) | 2.38 µM (active) | > 30 µM (inactive) | > 30 µM (inactive) | > 30 µM (inactive) | > 30 µM (inactive) | > 30 µM (inactive) | > 30 µM (inactive)
6 | Cc1nc2cc(-n3ncc(C(=O)c4cc5ccccc5[nH]4)c3N)ccc2[nH]1 [FGFR INHIBITOR DEBIO 1347] | > 30 µM (inactive) | > 30 µM (inactive) | > 30 µM (inactive) | > 30 µM (inactive) | > 30 µM (inactive) | > 30 µM (inactive) | > 30 µM (inactive) | > 30 µM (inactive)
7 | O=C(Nc1cc(C(F)(F)F)cc(C(F)(F)F)c1)c1cc(Cl)ccc1O [IMD-0354] | > 30 µM (inactive) | > 30 µM (inactive) | > 30 µM (inactive) | > 30 µM (inactive) | > 30 µM (inactive) | > 30 µM (inactive) | > 30 µM (inactive) | > 30 µM (inactive)
8 | CNC(=O)c1cccc2cc(Oc3ccnc4cc(OCC5(N)CC5)c(OC)cc34)ccc12 [LUCITANIB] | > 30 µM (inactive) | > 30 µM (inactive) | > 30 µM (inactive) | > 30 µM (inactive) | > 30 µM (inactive) | > 30 µM (inactive) | > 30 µM (inactive) | > 30 µM (inactive)
9 | NC1(c2ccc(-c3nc4ccn5c(=O)[nH]nc5c4cc3-c3ccccc3)cc2)CCC1 [MK-2206] | > 30 µM (inactive) | > 30 µM (inactive) | > 30 µM (inactive) | > 30 µM (inactive) | > 30 µM (inactive) | > 30 µM (inactive) | > 30 µM (inactive) | > 30 µM (inactive)
10 | CN(C[C@@H]1COCCO1)S(=O)(=O)Nc1ccc2ccc3ncc(-c4cnn(C)c4)cc3c(=O)c2c1 [MK-2461] | 2.59 µM (active) | > 30 µM (inactive) | > 30 µM (inactive) | > 30 µM (inactive) | > 30 µM (inactive) | > 30 µM (inactive) | > 30 µM (inactive) | > 30 µM (inactive)
11 | Cn1cc(-c2cnc3ccc4ccc(CS(=O)(=O)NCc5ccccn5)cc4c(=O)c3c2)cn1 [MK-8033] | > 30 µM (inactive) | > 30 µM (inactive) | > 30 µM (inactive) | > 30 µM (inactive) | > 30 µM (inactive) | > 30 µM (inactive) | > 30 µM (inactive) | > 30 µM (inactive)
12 | FC(F)(F)c1ccc(/C=C/c2nc(COc3ccc(CCCCn4ccnn4)cc3)co2)cc1 [MUBRITINIB] | > 30 µM (inactive) | > 30 µM (inactive) | > 30 µM (inactive) | > 30 µM (inactive) | > 30 µM (inactive) | > 30 µM (inactive) | > 30 µM (inactive) | > 30 µM (inactive)
13 | COc1ncc(-c2ccc3nccc(-c4ccnnc4)c3c2)cc1NS(=O)(=O)c1ccc(F)cc1F [OMIPALISIB] | > 30 µM (inactive) | > 30 µM (inactive) | > 30 µM (inactive) | > 30 µM (inactive) | > 30 µM (inactive) | > 30 µM (inactive) | > 30 µM (inactive) | > 30 µM (inactive)

The next lines start with the values.

Row | Kd [1] | Kd [2] | Kd [3] | Kd [4] | Kd [5] | Kd [6] | Kd [7] | Kd [8] | Compound
14 | > 30 µM (inactive) | > 30 µM (inactive) | > 30 µM (inactive) | > 30 µM (inactive) | > 30 µM (inactive) | > 30 µM (inactive) | > 30 µM (inactive) | > 30 µM (inactive) | CCn1c(C(=O)N(C2CC2)C2CC2)cc2c3c(ncn3C)c(Nc3cc(C)n(C)n3)nc21 [BMS-911543]
15 | > 30 µM (inactive) | > 30 µM (inactive) | > 30 µM (inactive) | > 30 µM (inactive) | > 30 µM (inactive) | > 30 µM (inactive) | > 30 µM (inactive) | > 30 µM (inactive) | COc1cc2ncnc(Oc3cccc(NC(=O)Nc4cc(C(C)(C)C(F)(F)F)on4)c3)c2cc1OC [CEP-32496]
16 | > 30 µM (inactive) | > 30 µM (inactive) | > 30 µM (inactive) | > 30 µM (inactive) | > 30 µM (inactive) | > 30 µM (inactive) | > 30 µM (inactive) | > 30 µM (inactive) | C#Cc1cccc(Nc2ncnc3cc(OC)c(OCCCCCCC(=O)NO)cc23)c1 [CUDC-101]

Source: ChEMBL document CHEMBL3991601, “The target landscape of clinical kinase drugs” (Science, 2017)
